Laboratory results reported in US20260048021A1, “NEUTRAL LIPID AND LIPID NANOPARTICLE” (National University Corporation Hokkaido University, priority 2022, published 2026).

What was measured:
factor VII (F7) = conditions: mouse liver; cited from earlier work
[1] = Evaluation of lipid polymorphism by 31P NMR spectroscopy; assay type: physicochemical; conditions: DOPC/lipid=50/50 (mol %), hydrated with PBS(−), 25° C.
Protocol: The spectrum of a lipid membrane by ^31P NMR spectroscopy differs depending on the phase. Therefore, analysis of a lipid membrane composed of DOPC and a lipid under evaluation was performed by ^31P NMR spectroscopy, the polymorphism of the phase state of the lipid membrane was evaluated from the obtained spectrum, and the ability of the lipid under evaluation to destroy the DOPC membrane was evaluated.
Specifically, DOPC and a lipid under evaluation (DOPE or TOT-10) were mixed at a molar ratio of 1:1 (16 μmol of total lipid) and were dissolved in 300 μL of chloroform, and then the solvent was removed by a distillation apparatus (rotovap) to form a lipid membrane. The resulting lipid membrane was hydrated with 500 μL of PBS(−) at 60° C. to obtain a sample for measurement.
Next, the sample was transferred to an NMR tube, and a proton-decoupled ^31P NMR spectrum was obtained using an ECA500 apparatus manufactured by JEOL Ltd. Acquisition parameters included a […], a spectral width of 280 kHz (for ECX 400P) with 32,768 data points, and an interpulse delay time of 1 second. The temperature was controlled at 25° C. Prior to Fourier transform, exponential multiplication corresponding to a line broadening of 50 Hz was applied to the free induction decay. Chemical shifts were referenced to 85% phosphoric acid (H3PO4) as an external standard. […]

| Structure (SMILES) | ED50 in factor VII (F7) knockdown (factor VII (F7)) [mg siRNA/kg] | phase of lipid membrane seen in 31P NMR spectrum [1] |
| --- | --- | --- |
| CCCCC/C=C\C/C=C\CCCCCCCCOC1(OCCCCCCCC/C=C\C/C=C\CCCCC)CCN(C)CC1 [YSK05] | 0.06 | – |
| CCCCCCCC/C=C\CCCCCCCC(=O)OC[C@H](COP(=O)(O)OCCN)OC(=O)CCCCCCC/C=C\CCCCCCCC [DOPE, 1,2-dioleoyl-sn-glycero-3-phosphoethanolamine] | – | a peak derived from the lamellar phase was observed |
| CCCCCCCC/C=C\CCCCCCCC(=O)OCC(COC(=O)CCCCCCC/C=C\CCCCCCCC)(COC(=O)CCCCCCC/C=C\CCCCCCCC)NC(=O)CCC[N+](C)(C)CC(=O)[O-] [TOT-10, 2-((4-((1,3-bis(oleoyloxy)-2-((oleoyloxy)methyl)propan-2-yl)amino)-4-oxobutyl)dimethylammonio)acetate] | – | a peak derived from the hexagonal phase or isotropic phase was observed instead of a peak derived from the lamellar phase |
| CCCCC/C=C\C/C=C\CCCCCCCCC(CCCCCCCC/C=C\C/C=C\CCCCC)OC(=O)CCCN(C)C [DLin-MC3-DMA] | 0.005 | – |
